{"source": "patent US5643912A", "about": "“Pyrazinoic acid esters as anti-mycobacterium avium agents” (The Research Foundation of State University of NY, priority 1996, dated 1997)", "key": {"[1]": {"system": "Mycobacterium (M.) tuberculosis", "details": "in words; cited from earlier work"}, "M. avium": {"system": "M. avium", "details": "Heifets et al. 1986; cited from earlier work"}, "[2]": {"system": "M. bovis or other mycobacteria", "details": "in words; cited from earlier work"}, "[3]": {"details": "in words; cited from earlier work"}, "M. avium LPR": {"system": "M. avium LPR", "assay": "Broth dilution MIC vs M. avium LPR", "format": "cell-based", "details": "Mycobacterium avium, M. avium LPR (footnote a), 7H10 broth, pH 5.8"}, "M. kansasii SWK": {"system": "M. kansasii SWK", "assay": "Broth dilution MIC vs M. kansasii SWK", "format": "cell-based", "details": "Mycobacterium kansasii, 7H10 broth, pH 5.8"}, "M. tuberculosis 102": {"system": "M. tuberculosis 102", "assay": "Broth dilution MIC vs M. tuberculosis 102", "format": "cell-based", "details": "Mycobacterium tuberculosis, 102, pH 5.8, M. tuberculosis 102, 7H10 broth, read-out: MIC"}, "[4]": {"system": "Myobacterium tuberculosis H37RV", "details": "cited from earlier work"}, "[5]": {"system": "a number of bacteria including M. tuberculosis", "details": "Suzuki et al. 1958; cited from earlier work"}}, "data": [{"molecule": "NC(=O)c1cnccn1", "note": "[pyrazinamide]", "values": [{"measurement": "activity against M. tuberculosis", "setting": "[1]", "value": "only active against Mycobacterium (M.) tuberculosis"}, {"measurement": "activity against M. avium", "setting": "M. avium", "value": "inactive"}, {"measurement": "activity against M. bovis or other mycobacteria", "setting": "[2]", "value": "not active"}, {"measurement": "hepatotoxicity", "setting": "[3]", "value": "hepatotoxicity"}]}, {"molecule": "COC(=O)c1cnc(Cl)cn1", "note": "[Example 5]", "values": [{"measurement": "MIC", "setting": "M. avium LPR", "value": 64, "unit": "µg/mL"}, {"measurement": "MIC", "setting": "M. kansasii SWK", "value": 2, "unit": "µg/mL"}, {"measurement": "MIC", "setting": "M. tuberculosis 102", "value": 4, "unit": "µg/mL"}]}, {"molecule": "CN(C)CCOC(=O)c1cnccn1", "note": "[N,N-dimethyl-2-aminoethyl pyrazinoate]", "values": [{"measurement": "in vitro activity against M. tuberculosis H37RV", "setting": "[4]", "value": "active"}]}, {"molecule": "pyrazinoate ester of chloramphenicol", "values": [{"measurement": "activity against bacteria including M. tuberculosis", "setting": "[5]", "value": "inactive"}]}]}
